Source: ChEMBL document CHEMBL4715855, “N-phenyl ureidobenzenesulfonates, a novel class of promising human dihydroorotate dehydrogenase inhibitors” (Bioorg Med Chem, 2020)
pIC50: −log10 of the molar value.

Tests used:
Format in all cases: functional, cell-based
HCC 2998 = experiment: Antiproliferative activity against human HCC 2998 cells assessed as cell growth inhibition measured after 48 hrs by sulforhodamine B assay; conditions: HCC 2998, 48 h
IGROV-1 = experiment: Antiproliferative activity against human IGROV-1 cells assessed as cell growth inhibition measured after 48 hrs by sulforhodamine B assay; conditions: IGROV-1, 48 h
Malme-3M = experiment: Antiproliferative activity against human Malme-3M cells assessed as cell growth inhibition measured after 48 hrs by sulforhodamine B assay
KM12 = experiment: Antiproliferative activity against human KM12 cells assessed as cell growth inhibition measured after 48 hrs by sulforhodamine B assay; conditions: KM12, 48 h
U-251 = experiment: Antiproliferative activity against human U-251 cells assessed as cell growth inhibition measured after 48 hrs by sulforhodamine B assay; conditions: U-251, 48 h
OVCAR-8 = experiment: Antiproliferative activity against human OVCAR-8 cells assessed as cell growth inhibition measured after 48 hrs by sulforhodamine B assay; conditions: OVCAR-8, 48 h
MOLT-4 = experiment: Antiproliferative activity against human MOLT-4 cells assessed as cell growth inhibition measured after 48 hrs by sulforhodamine B assay; conditions: MOLT-4, 48 h
HT-29 [1] = experiment: Antiproliferative activity against human HT-29 cells assessed as cell growth inhibition measured after 48 hrs by SRB assay; conditions: HT-29, 48 h
DU-145 = experiment: Antiproliferative activity against human DU-145 cells assessed as cell growth inhibition measured after 48 hrs by sulforhodamine B assay; conditions: DU-145, 48 h
MCF7 [2] = experiment: Antiproliferative activity against human MCF7 cells assessed as cell growth inhibition measured after 48 hrs by SRB assay; conditions: MCF7, 48 h
CCRF-CEM = experiment: Antiproliferative activity against human CCRF-CEM cells assessed as cell growth inhibition measured after 48 hrs by sulforhodamine B assay
M21 [3] = experiment: Antiproliferative activity against human M21 cells assessed as cell growth inhibition measured after 48 hrs by SRB assay; conditions: M21, 48 h
SK-MEL-2 = experiment: Antiproliferative activity against human SK-MEL-2 cells assessed as cell growth inhibition measured after 48 hrs by sulforhodamine B assay; conditions: SK-MEL-2, 48 h
NCI-H23 = experiment: Antiproliferative activity against human NCI-H23 cells assessed as cell growth inhibition measured after 48 hrs by sulforhodamine B assay; conditions: NCI-H23, 48 h
NCI-H322M = experiment: Antiproliferative activity against human NCI-H322M cells assessed as cell growth inhibition measured after 48 hrs by sulforhodamine B assay
RXF 393 = experiment: Antiproliferative activity against human RXF 393 cells assessed as cell growth inhibition measured after 48 hrs by sulforhodamine B assay; conditions: RXF 393, 48 h
MDA-MB-435 = experiment: Antiproliferative activity against human MDA-MB-435 cells assessed as cell growth inhibition measured after 48 hrs by sulforhodamine B assay; conditions: MDA-MB-435, 48 h
HT-1080 [4] = experiment: Antiproliferative activity against human HT-1080 cells assessed as cell growth inhibition measured after 48 hrs by SRB assay; conditions: HT-1080, 48 h
BT-549 = experiment: Antiproliferative activity against human BT-549 cells assessed as cell growth inhibition measured after 48 hrs by sulforhodamine B assay; conditions: BT-549, 48 h
UACC-62 = experiment: Antiproliferative activity against human UACC-62 cells assessed as cell growth inhibition measured after 48 hrs by sulforhodamine B assay; conditions: UACC-62, 48 h
OVCAR-4 = experiment: Antiproliferative activity against human OVCAR-4 cells assessed as cell growth inhibition measured after 48 hrs by sulforhodamine B assay; conditions: OVCAR-4, 48 h
SK-OV-3 = experiment: Antiproliferative activity against human SK-OV-3 cells assessed as cell growth inhibition measured after 48 hrs by sulforhodamine B assay; conditions: SK-OV-3, 48 h
SNB-19 = experiment: Antiproliferative activity against human SNB-19 cells assessed as cell growth inhibition measured after 48 hrs by sulforhodamine B assay; conditions: SNB-19, 48 h
UACC-257 = experiment: Antiproliferative activity against human UACC-257 cells assessed as cell growth inhibition measured after 48 hrs by sulforhodamine B assay; conditions: UACC-257, 48 h
PC-3 = experiment: Antiproliferative activity against human PC-3 cells assessed as cell growth inhibition measured after 48 hrs by sulforhodamine B assay; conditions: PC-3, 48 h
NCI-H460 = experiment: Antiproliferative activity against human NCI-H460 cells assessed as cell growth inhibition measured after 48 hrs by sulforhodamine B assay; conditions: NCI-H460, 48 h
NCI-H226 = experiment: Antiproliferative activity against human NCI-H226 cells assessed as cell growth inhibition measured after 48 hrs by sulforhodamine B assay; conditions: NCI-H226, 48 h
HCT-15 = experiment: Antiproliferative activity against human HCT-15 cells assessed as cell growth inhibition measured after 48 hrs by sulforhodamine B assay; conditions: HCT-15, 48 h
TK-10 = experiment: Antiproliferative activity against human TK-10 cells assessed as cell growth inhibition measured after 48 hrs by sulforhodamine B assay; conditions: TK-10, 48 h
OVCAR-5 = experiment: Antiproliferative activity against human OVCAR-5 cells assessed as cell growth inhibition measured after 48 hrs by sulforhodamine B assay; conditions: OVCAR-5, 48 h
SK-MEL-28 = experiment: Antiproliferative activity against human SK-MEL-28 cells assessed as cell growth inhibition measured after 48 hrs by sulforhodamine B assay; conditions: SK-MEL-28, 48 h
SK-MEL-5 = experiment: Antiproliferative activity against human SK-MEL-5 cells assessed as cell growth inhibition measured after 48 hrs by sulforhodamine B assay; conditions: SK-MEL-5, 48 h
MDA-MB-231 = experiment: Antiproliferative activity against human MDA-MB-231/ATCC cells assessed as cell growth inhibition measured after 48 hrs by sulforhodamine B assay; conditions: MDA-MB-231, 48 h
LOX IMVI = experiment: Antiproliferative activity against human LOX IMVI cells assessed as cell growth inhibition measured after 48 hrs by sulforhodamine B assay
SF-539 = experiment: Antiproliferative activity against human SF-539 cells assessed as cell growth inhibition measured after 48 hrs by sulforhodamine B assay; conditions: SF-539, 48 h
M14 = experiment: Antiproliferative activity against human M14 cells assessed as cell growth inhibition measured after 48 hrs by sulforhodamine B assay; conditions: M14, 48 h
NCI/ADR-RES = experiment: Antiproliferative activity against human NCI/ADR-RES cells assessed as cell growth inhibition measured after 48 hrs by sulforhodamine B assay
RPMI-8226 = experiment: Antiproliferative activity against human RPMI-8226 cells assessed as cell growth inhibition measured after 48 hrs by sulforhodamine B assay; conditions: RPMI-8226, 48 h
T47D = experiment: Antiproliferative activity against human T47D cells assessed as cell growth inhibition measured after 48 hrs by sulforhodamine B assay
SR = experiment: Antiproliferative activity against human SR cells assessed as cell growth inhibition measured after 48 hrs by sulforhodamine B assay
SF-295 = experiment: Antiproliferative activity against human SF-295 cells assessed as cell growth inhibition measured after 48 hrs by sulforhodamine B assay; conditions: SF-295, 48 h
ACHN = experiment: Antiproliferative activity against human ACHN cells assessed as cell growth inhibition measured after 48 hrs by sulforhodamine B assay
OVCAR-3 = experiment: Antiproliferative activity against human OVCAR-3 cells assessed as cell growth inhibition measured after 48 hrs by sulforhodamine B assay; conditions: OVCAR-3, 48 h
HT-29 [5] = experiment: Antiproliferative activity against human HT-29 cells assessed as cell growth inhibition measured after 48 hrs in presence of uridine by SRB assay; conditions: HT-29, 48 h
MCF7 [6] = experiment: Antiproliferative activity against human MCF7 cells assessed as cell growth inhibition measured after 48 hrs in presence of uridine by SRB assay; conditions: MCF7, 48 h
SNB-75 = experiment: Antiproliferative activity against human SNB-75 cells assessed as cell growth inhibition measured after 48 hrs by sulforhodamine B assay; conditions: SNB-75, 48 h
786-0 = experiment: Antiproliferative activity against human 786-0 cells assessed as cell growth inhibition measured after 48 hrs by sulforhodamine B assay; conditions: 786-0, 48 h
SN12C = experiment: Antiproliferative activity against human SN12C cells assessed as cell growth inhibition measured after 48 hrs by sulforhodamine B assay
SW-620 = experiment: Antiproliferative activity against human SW-620 cells assessed as cell growth inhibition measured after 48 hrs by sulforhodamine B assay; conditions: SW-620, 48 h
CAKI-1 = experiment: Antiproliferative activity against human CAKI-1 cells assessed as cell growth inhibition measured after 48 hrs by sulforhodamine B assay; conditions: CAKI-1, 48 h
HCT-116 = experiment: Antiproliferative activity against human HCT-116 cells assessed as cell growth inhibition measured after 48 hrs by sulforhodamine B assay; conditions: HCT-116, 48 h
HT-1080 [7] = experiment: Antiproliferative activity against human HT-1080 cells assessed as cell growth inhibition measured after 48 hrs in presence of uridine by SRB assay; conditions: HT-1080, 48 h
SF-268 = experiment: Antiproliferative activity against human SF-268 cells assessed as cell growth inhibition measured after 48 hrs by sulforhodamine B assay; conditions: SF-268, 48 h
UO-31 = experiment: Antiproliferative activity against human UO-31 cells assessed as cell growth inhibition measured after 48 hrs by sulforhodamine B assay; conditions: UO-31, 48 h
M21 [8] = experiment: Antiproliferative activity against human M21 cells assessed as cell growth inhibition measured after 48 hrs in presence of uridine by SRB assay; conditions: M21, 48 h
Hs-578T = experiment: Antiproliferative activity against human Hs-578T cells assessed as cell growth inhibition measured after 48 hrs by sulforhodamine B assay
NCI-H522 = experiment: Antiproliferative activity against human NCI-H522 cells assessed as cell growth inhibition measured after 48 hrs by sulforhodamine B assay; conditions: NCI-H522, 48 h
HOP-92 = experiment: Antiproliferative activity against human HOP-92 cells assessed as cell growth inhibition measured after 48 hrs by sulforhodamine B assay; conditions: HOP-92, 48 h
COLO 205 = experiment: Antiproliferative activity against human COLO 205 cells assessed as cell growth inhibition measured after 48 hrs by sulforhodamine B assay; conditions: COLO 205, 48 h
K562 = experiment: Antiproliferative activity against human K562 cells assessed as cell growth inhibition incubated for 48 hrs by sulforhodamine B assay; conditions: K562, 48 h
A549 = experiment: Antiproliferative activity against human A549/ATCC cells assessed as cell growth inhibition measured after 48 hrs by sulforhodamine B assay; conditions: A549, 48 h
A498 = experiment: Antiproliferative activity against human A498 cells assessed as cell growth inhibition measured after 48 hrs by sulforhodamine B assay; conditions: A498, 48 h
HOP-62 = experiment: Antiproliferative activity against human HOP-62 cells assessed as cell growth inhibition measured after 48 hrs by sulforhodamine B assay; conditions: HOP-62, 48 h

pIC50 (HCC 2998): 5.02
pIC50 (U-251): 6.71
pIC50 (OVCAR-8): 6.49
pIC50 (MOLT-4): 7.05
pIC50 (HT-29 [1]; read-out: IC50): 6.23
IC50 (HT-29 [1]; read-out: pIC50 (converted)): 372 nM
pIC50 (DU-145): 6.58
pIC50 (MCF7 [2]; read-out: IC50): 5.29
IC50 (MCF7 [2]; read-out: pIC50 (converted)): 269 nM
pIC50 (CCRF-CEM): 6.55
pIC50 (SK-MEL-2): 4.21
pIC50 (NCI-H23): 4.67
pIC50 (NCI-H322M): 4.82
pIC50 (MDA-MB-435): 6.43
pIC50 (HT-1080 [4]): 6.68
pIC50 (BT-549): 4.24
pIC50 (OVCAR-4): 5.56
pIC50 (SK-OV-3): 4.79
pIC50 (PC-3): 6.12
pIC50 (NCI-H460): 6.89
pIC50 (NCI-H226): 4.71
pIC50 (HCT-15): 7.25
pIC50 (OVCAR-5): 4.41
pIC50 (SK-MEL-28): 5.00
pIC50 (SK-MEL-5): 5.86
pIC50 (MDA-MB-231): 5.44
pIC50 (RPMI-8226): 6.43
pIC50 (T47D): 4.77
pIC50 (ACHN): 6.82
pIC50 (OVCAR-3): 5.43
pIC50 (HT-29 [5]): 4.62
pIC50 (MCF7 [6]): 4.60
pIC50 (786-0): 6.71
pIC50 (SW-620): 6.42
pIC50 (HCT-116): 7.06
pIC50 (HT-1080 [7]): 4.77
pIC50 (NCI-H522): 5.70
pIC50 (COLO 205): 6.29
pIC50 (K562): 6.84
pIC50 (A549): 6.63
SMILES: Cc1c(-c2ccc(-c3ccccc3F)cc2)nc2ccc(F)cc2c1C(=O)O [BREQUINAR]
pIC50 (IGROV-1): 6.52
pIC50 (Malme-3M): 4.81
pIC50 (KM12): 6.68
pIC50 (M21 [3]): 6.24
pIC50 (RXF 393): 4.93
pIC50 (UACC-62): 6.58
pIC50 (SNB-19): 5.90
pIC50 (UACC-257): 4.90
pIC50 (TK-10): 4.79
pIC50 (LOX IMVI): 7.03
pIC50 (SF-539): 6.46
pIC50 (M14): 5.33
pIC50 (NCI/ADR-RES): 5.66
pIC50 (SR): 6.37
pIC50 (SF-295): 6.62
pIC50 (SNB-75): 4.09
pIC50 (SN12C): 5.75
pIC50 (CAKI-1): 6.04
pIC50 (SF-268): 6.43
pIC50 (UO-31): 5.94
pIC50 (M21 [8]): 4.60
pIC50 (Hs-578T): 5.16
pIC50 (HOP-92): 4.45
pIC50 (A498): 4.30
pIC50 (HOP-62): 5.96
